Test results published in the supplement of paper PMC11061612.

Key:
Test in all cases: combination Emax (second highest fraction inhibited in the dose matrix, 72 h); higher = more inhibition; extreme values may be limits of the assay
[1] = system: AN3-CA (Endometrial Carcinoma)
How it was run: (§1)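 After 24 hours at 37°C and 5% CO2 in 1536-well plates, cells in DMEM/F12 or RPMI plus 10% FBS received two-drug dose matrices for 72 hours. Viability came from CellTiter-Glo 2.0 luminescence and was scaled as inhibition, anchored at 0 by vehicle wells and at 1 by blank wells. Combination Emax is taken as the second-highest inhibition in the matrix, and Bliss excess as the observed combination effect less EA + EB − EA·EB, with EA and EB the single-agent effects.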

[2] = system: Becker (Low Grade Glioma)
How it was run: as §1

[3] = system: CML-T1 (Chronic Myelogenous Leukemia)
How it was run: as §1

[4] = system: Calu-6 (Non-Small Cell Lung Carcinoma)
How it was run: as §1

ES-2 (Ovarian Carcinoma) = system: ES-2 (Ovarian Carcinoma)
How it was run: as §1

[5] = system: HSC-3 (Oral Cavity Carcinoma)
How it was run: as §1

HuO-3N1 (Osteosarcoma) = system: HuO-3N1 (Osteosarcoma)
How it was run: as §1

[6] = system: JHH-1 (Hepatocellular Carcinoma)
How it was run: as §1

KYM-1 (Rhabdomyosarcoma) = system: KYM-1 (Rhabdomyosarcoma)
How it was run: as §1

[7] = system: KYSE-70 (Esophageal Squamous Cell Carcinoma)
How it was run: as §1

[8] = system: LAMA-84 (Chronic Myelogenous Leukemia)
How it was run: as §1

[9] = system: NCI-H1155 (Non-Small Cell Lung Carcinoma)
How it was run: as §1

[10] = system: NCI-H196 (Small Cell Lung Carcinoma)
How it was run: as §1

[11] = system: NCI-H810 (Non-Small Cell Lung Carcinoma)
How it was run: as §1

[12] = system: OV-90 (Ovarian Carcinoma)
How it was run: as §1

[13] = system: PC-14 (Lung Adenocarcinoma)
How it was run: as §1

[14] = system: RMG-I (Ovarian Carcinoma)
How it was run: as §1

RT4 (Bladder Carcinoma) = system: RT4 (Bladder Carcinoma)
How it was run: as §1

[15] = system: SJRH30 (Rhabdomyosarcoma)
How it was run: as §1

[16] = system: SK-MM-2 (Plasma Cell Myeloma)
How it was run: as §1

Compound | combination Emax [1] | combination Emax [2] | combination Emax [3] | combination Emax [4] | combination Emax (ES-2 (Ovarian Carcinoma)) | combination Emax [5] | combination Emax (HuO-3N1 (Osteosarcoma)) | combination Emax [6] | combination Emax (KYM-1 (Rhabdomyosarcoma)) | combination Emax [7] | combination Emax [8] | combination Emax [9] | combination Emax [10] | combination Emax [11] | combination Emax [12] | combination Emax [13] | combination Emax [14] | combination Emax (RT4 (Bladder Carcinoma)) | combination Emax [15] | combination Emax [16]
Cc1nc(Nc2ncc(C(=O)Nc3c(C)cccc3Cl)s2)cc(N2CCN(CCO)CC2)n1 [Dasatinib] + CC(=O)Nc1cccc(-n2c(=O)n(C3CC3)c(=O)c3c(Nc4ccc(I)cc4F)n(C)c(=O)c(C)c32)c1 [Trametinib] (first compound max 2 µM, 7x7, partner max 1 µM) | 0.491 | 0.5 | 0.966 | 0.969 | 0.86 | 0.867 | 0.493 | 0.806 | 0.401 | 0.278 | 1 | 0.237 | 0.103 | 0.103 | 0.752 | 1 | 0.505 | 0.822 | 0.157 | 0.123
COc1cccc2c1C(=O)c1c(O)c3c(c(O)c1C2=O)C[C@@](O)(C(=O)CO)C[C@@H]3O[C@H]1C[C@H](N)[C@H](O)[C@H](C)O1 [Doxorubicin] + Cc1cc2ncnn2cc1Nc1ncc2c(n1)n(C1CCOCC1)c(=O)n2C [AZD7648] (first compound max 1 µM, 7x7, partner max 10 µM) | 0.501 | 0.555 | 1 | 0.516 | 0.76 | 0.702 | 0.81 | 0.353 | 0.956 | 0.502 | 0.822 | 0.916 | 0.145 | 0.756 | 0.569 | 0.748 | 0.599 | 0.867 | 0.925 | 0.371
COc1cc2ncnc(Nc3ccc(F)c(Cl)c3)c2cc1OCCCN1CCOCC1 [Gefitinib] + CC(C)n1c(=O)n(C)c2cnc3cc(F)c(-c4ccc(OCCCN5CCCCC5)nc4)cc3c21 [AZD1390] (first compound max 10 µM, 7x7, partner max 0.3 µM) | 0.01 | 0.126 | 0.148 | 0.128 | 0.41 | 0.623 | 0.0711 | 0.247 | 0.224 | 0.098 | 0.315 | 0.0815 | 0.0162 | 0.158 | 0.12 | 0.752 | 0.413 | 0.128 | 0 | 0.151
CS(=O)(=O)CCNCc1ccc(-c2ccc3ncnc(Nc4ccc(OCc5cccc(F)c5)c(Cl)c4)c3c2)o1 [Lapatinib] + C[C@@H](Oc1cc(-c2cnn(C3CCNCC3)c2)cnc1N)c1c(Cl)ccc(F)c1Cl [Crizotinib] (first compound max 10 µM, 7x7, partner max 10 µM) | 0.874 | 0.725 | 0.965 | 0.815 | 0.921 | 1 | 0.876 | 0.952 | 0.971 | 0.585 | 1 | 0.61 | 0.19 | 0.412 | 0.578 | 1 | 0.851 | 0.916 | 0.955 | 0.43
CC(=O)c1c(C)c2cnc(Nc3ccc(N4CCNCC4)cn3)nc2n(C2CCCC2)c1=O [Palbociclib] + CC1(C)CCC(CN2CCN(c3ccc(C(=O)NS(=O)(=O)c4ccc(NCC5CCOCC5)c([N+](=O)[O-])c4)c(Oc4cnc5[nH]ccc5c4)c3)CC2)=C(c2ccc(Cl)cc2)C1 [Venetoclax] (first compound max 10 µM, 7x7, partner max 1 µM) | 0.255 | 0.249 | 0.932 | 0.353 | 0.501 | 0.359 | 0.146 | 0.138 | 0.863 | 0.11 | 0.496 | 0.241 | 0.0487 | 0.0599 | 0.0192 | 0.204 | 0.277 | 0.203 | 0.0832 | 1
CC(=O)c1c(C)c2cnc(Nc3ccc(N4CCNCC4)cn3)nc2n(C2CCCC2)c1=O [Palbociclib] + Cc1c2c(nn1C)CSCc1cc(n(C)n1)CSc1cc(c3ccccc3c1)OCCCc1c(C(=O)O)n(C)c3c-2c(Cl)ccc13 [AZD5991] (first compound max 10 µM, 7x7, partner max 1 µM) | 0.886 | 0.428 | 0.924 | 0.33 | 0.619 | 0.613 | 0.508 | 0.289 | 0.947 | 0.157 | 0.663 | 0.237 | 0.126 | 0.224 | 0.158 | 0.279 | 0.306 | 0.355 | 0.786 | 0.259
CC(=O)c1c(C)c2cnc(Nc3ccc(N4CCNCC4)cn3)nc2n(C2CCCC2)c1=O [Palbociclib] + Cn1cnc2c(F)c(Nc3ccc(Br)cc3Cl)c(C(=O)NOCCO)cc21 [Selumetinib] (first compound max 10 µM, 7x7, partner max 10 µM) | 0.296 | 0.368 | 0.926 | 0.707 | 0.569 | 0.521 | 0.154 | 0.201 | 0.93 | 0.182 | 0.945 | 0.21 | 0.0806 | 0.0848 | 0.636 | 0.434 | 0.353 | 0.45 | 0.143 | 0.138
